“And” between values parts separate entries of the source, which are not always exact repeats. Equal values may be shown once.
Target: T1, Efl1 R1086Q•Sdo1 (Saccharomyces cerevisiae, UniProt P53893, R1086Q)
T1 construct: made in house; host or cells: Efl1: Saccharomyces cerevisiae; Sdo1: Escherichia coli C41
Assay: ITC: binding of guanine nucleotides to pre-formed complex Efl1 R1086Q•Sdo1
Conditions: for ΔCpb: from ΔHb at 25–35 °C; for -TΔs / Δg / Δh / κ (heterotropic cooperativity): Effect of Mg^2+
Procedure: All calorimetric measurements were carried out using MicroCal^TM iTC200 System (GE Healthcare, Northampton, MA, USA) in a temperature range of 25–35 °C. Experiments were performed in a buffer consisting of 50 mM Tris-HCl (pH 8.0), 150 mM NaCl, 100 µM DTT, and 5% glycerol. In the titrations with Mg^2+-bound nucleotides, both the ligand and protein solutions contained 5 mM MgCl2. In the case of titrations with Mg^2+-free nucleotide, both the ligand and protein solutions were supplemented with 2 mM EDTA to sequester any residual trace of metal ions in solution. Protein samples and ligands were prepared in the exact same buffer prior to each titration. Protein concentration in the cell comprised 30–50 µM GTPase, while the ligand concentration in the syringe was 2–3 mM for GTP, MgGTP, GDP, and MgGDP. To ensure measuring the interaction of the complex Efl1 R1086Q•Sdo1 with the nucleotide, an eight-fold concentration excess of Sdo1 was used compared with that of the enzyme. […] The titration schedule consisted of 15–20 consecutive injections of the ligand with 5 min intervals between injections and a stirring rate of 700 rpm. The dilution heat of the ligand was obtained by adding the ligand to a buffer solution under identical conditions and with the same injection schedule used for the protein sample. All samples were degassed for 10 min prior to the experiment.
The binding isotherms obtained for the isolated GTPase in the presence of Mg(II) were analysed using a ternary model in which the protein can bind to the free nucleotide (G(D)TP) or that bound to one magnesium ion (MgG(D)TP); additionally, GTP may also exist in the form of Mg2GTP, which is not recognised by the protein. The derivation of this coupled-equilibria model can be reviewed in [6, 31]. The binding constant (Kb), the enthalpy change (∆Hb), and the stoichiometry (n) were obtained with the non-linear routines implemented in Origin 5.0 (OriginLab, Co., Northampton, MA, USA) using a one-binding-site model as described in [32, 33]. The heterotropic cooperativity for the binding of guanine nucleotides and Sdo1 to Efl1 R1086Q were calculated as previously described in [6, 32]. The cooperative effects of Mg(II) on the binding of guanine nucleotides to Efl1 R1086Q alone and bound to Sdo1 were calculated as follows:κ = KE-MG/KE-G κ = KES-MG/KES-G Δh = ΔHE-MG − ΔHE-G Δh = ΔHES-MG − ΔHES-G where subscripts E-MG and E-G stand for the association of the metal-bound and metal-free guanine nucleotide with mutant Efl1, respectively. Corresponding expressions applied to the heterotropic cooperativity of the binding of nucleotides to the preformed complex, Efl1•Sdo1 (ES).
The impact of Sdo1 on the binding of Efl1 R1086Q to guanine nucleotides in the presence of magnesium ions is contained in KES-MG and ΔHES-MG relative to the KE-S and ΔHE-S values; analogous ratios report the effects in the absence of Mg(II):κ = KES-MG/KE-S κ = KES-G/KE-G Δh = ΔHES-MG − ΔHE-S Δh = ΔHES-G − ΔHE-G
The corresponding cooperative entropy change was calculated as:TΔs = Δh − Δg = Δh + RTlnκ
The detailed methodology and equations to compute the changes in the accessible surface area (∆ASA) of the GTPase upon binding to nucleotides and the ∆S energetic-based parameters are reported in [6]. Briefly, the water-accessible areas (ASAs) were computed using programme NACCESS, while the changes in accessible surface area (ΔASA) upon the formation of each GTPase–nucleotide complex were estimated considering the difference between the complex and the sum of the free interacting partners. The calculated polar (ΔASAp) and apolar (ΔASAap) area changes were subsequently used to estimate the free molecular partners. […]

T1 sequence (P53893 whole entry R1086Q): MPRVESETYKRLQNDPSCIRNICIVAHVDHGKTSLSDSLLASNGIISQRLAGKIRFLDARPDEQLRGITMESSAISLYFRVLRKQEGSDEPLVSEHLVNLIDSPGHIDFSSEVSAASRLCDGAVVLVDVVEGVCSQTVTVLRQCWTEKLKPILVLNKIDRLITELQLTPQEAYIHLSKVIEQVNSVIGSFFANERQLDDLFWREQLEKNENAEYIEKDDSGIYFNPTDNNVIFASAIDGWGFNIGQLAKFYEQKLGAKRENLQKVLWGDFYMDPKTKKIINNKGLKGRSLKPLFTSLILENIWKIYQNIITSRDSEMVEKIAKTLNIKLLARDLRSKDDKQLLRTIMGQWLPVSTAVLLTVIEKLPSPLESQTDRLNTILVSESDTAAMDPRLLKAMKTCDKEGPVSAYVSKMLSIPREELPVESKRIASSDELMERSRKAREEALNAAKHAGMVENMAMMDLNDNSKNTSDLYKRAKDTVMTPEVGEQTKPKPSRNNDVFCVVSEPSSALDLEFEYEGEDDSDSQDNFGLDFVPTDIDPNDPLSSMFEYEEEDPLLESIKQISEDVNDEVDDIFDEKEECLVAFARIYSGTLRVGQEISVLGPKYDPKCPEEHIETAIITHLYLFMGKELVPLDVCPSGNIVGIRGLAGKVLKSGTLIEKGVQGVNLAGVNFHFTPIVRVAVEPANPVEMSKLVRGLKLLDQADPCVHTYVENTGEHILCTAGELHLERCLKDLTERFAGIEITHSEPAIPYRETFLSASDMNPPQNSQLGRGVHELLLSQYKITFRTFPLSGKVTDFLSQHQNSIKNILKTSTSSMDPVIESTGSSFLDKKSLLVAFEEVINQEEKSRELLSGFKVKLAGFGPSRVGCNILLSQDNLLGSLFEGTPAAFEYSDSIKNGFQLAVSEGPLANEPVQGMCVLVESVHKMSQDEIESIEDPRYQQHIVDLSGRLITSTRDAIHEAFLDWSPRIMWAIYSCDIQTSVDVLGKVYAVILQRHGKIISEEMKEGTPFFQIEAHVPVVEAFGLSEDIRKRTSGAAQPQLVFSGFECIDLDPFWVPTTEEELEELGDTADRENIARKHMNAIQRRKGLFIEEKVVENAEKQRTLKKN
T1 sequence (Q07953 whole entry, further chain): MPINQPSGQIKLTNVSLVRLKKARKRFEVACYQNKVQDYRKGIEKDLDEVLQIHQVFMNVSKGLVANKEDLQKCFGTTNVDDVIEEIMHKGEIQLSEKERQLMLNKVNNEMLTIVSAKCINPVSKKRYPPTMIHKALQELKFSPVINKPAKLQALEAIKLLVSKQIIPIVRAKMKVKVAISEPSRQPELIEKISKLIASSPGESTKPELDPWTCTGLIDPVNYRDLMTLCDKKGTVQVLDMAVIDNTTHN

In the case of `Nc1nc2c(ncn2[C@@H]2O[C@H](COP(=O)(O)OP(=O)(O)O)[C@@H](O)[C@H]2O)c(=O)[nH]1` [GDP], the “fold greater affinity in the presence of magnesium ions” value (+Mg^2+ vs −Mg^2+) is reported as 2–5 times, the “-TΔSb” value (+Mg^2+, 25 °C) is reported as -4.7 kcal/mol and the ΔGb (+Mg^2+, 25 °C) is reported as -6.9 kcal/mol. The ΔHb (+Mg^2+, 25 °C) was -2.1 ± 0.08 kcal/mol, the “-TΔSb” value (+Mg^2+, 30 °C) was -3.3 kcal/mol and the “Nconfres (number of residues changing conformation, absolute value)” value (+Mg^2+, 30 °C) was 25. For the same compound, the “Nconfrotb (number of routable bonds changing conformation, absolute value)” value (+Mg^2+, 30 °C) was 34, the ΔCpconf (+Mg^2+, 30 °C) was −267 cal mol^−1 K^−1 and the ΔCprb (+Mg^2+, 30 °C) was −48 cal mol^−1 K^−1. The ΔGb (+Mg^2+, 30 °C) was -7.1 kcal/mol, the ΔHb (+Mg^2+, 30 °C) was -3.8 ± 0.05 kcal/mol and the ΔSb (+Mg^2+, 30 °C) was 11 cal mol^−1 K^−1. The ΔSconf (+Mg^2+, 30 °C) was −57 cal mol^−1 K^−1, the ΔSsolv (+Mg^2+, 30 °C) was 75 cal mol^−1 K^−1 and the “−ΔASAconf” value (+Mg^2+, 30 °C) was 1198 Å^2. For the same compound, the “-TΔSb” value (+Mg^2+, 35 °C) was -2.0 kcal/mol, the ΔGb (+Mg^2+, 35 °C) was -7.3 kcal/mol and the ΔHb (+Mg^2+, 35 °C) was -5.3 ± 0.11 kcal/mol. The ΔCpb (+Mg^2+) was −315 cal mol^−1 K^−1 and −315 ± 9 cal mol^−1 K^−1, the “-TΔs” value (Efl1 R1086Q + Sdo1, 25 °C) was -0.7 kcal/mol and the Δg (Efl1 R1086Q + Sdo1, 25 °C) was -0.4 kcal/mol. For the same compound, the Δh (Efl1 R1086Q + Sdo1, 25 °C) was 0.3 kcal/mol, the “κ (heterotropic cooperativity)” value (Efl1 R1086Q + Sdo1, 25 °C) was 1.9 and the “-TΔs” value (Efl1 R1086Q + Sdo1, 30 °C) was -2.4 kcal/mol. The Δg (Efl1 R1086Q + Sdo1, 30 °C) was -0.8 kcal/mol, the Δh (Efl1 R1086Q + Sdo1, 30 °C) was 1.6 kcal/mol and the “κ (heterotropic cooperativity)” value (Efl1 R1086Q + Sdo1, 30 °C) was 3.7. For the same compound, the “-TΔs” value (Efl1 R1086Q + Sdo1, 35 °C) was -3.7 kcal/mol, the Δg (Efl1 R1086Q + Sdo1, 35 °C) was -1.0 kcal/mol and the Δh (Efl1 R1086Q + Sdo1, 35 °C) was 2.7 kcal/mol. The “κ (heterotropic cooperativity)” value (Efl1 R1086Q + Sdo1, 35 °C) was 5.4, the Kd (+Mg^2+, 25 °C) was 9 ± 2 µM and the Kd (+Mg^2+, 30 °C) was 8 ± 1 µM. The Kd (+Mg^2+, 35 °C) was 6 ± 1 µM, the Kd (−Mg^2+, 25 °C) was 17 ± 0.5 µM and the Kd (−Mg^2+, 30 °C) was 30 ± 4 µM. For the same compound, the Kd (−Mg^2+, 35 °C) was 34 ± 5 µM, the “-TΔSb” value (−Mg^2+, 25 °C) was -4.0 kcal/mol and the ΔGb (−Mg^2+, 25 °C) was -6.5 kcal/mol. For the same compound, the ΔHb (−Mg^2+, 25 °C) was -2.5 ± 0.4 kcal/mol, the “-TΔSb” value (−Mg^2+, 30 °C) was -1.0 kcal/mol and the “Nconfres (number of residues changing conformation, absolute value)” value (−Mg^2+, 30 °C) was 50. The “Nconfrotb (number of routable bonds changing conformation, absolute value)” value (−Mg^2+, 30 °C) was 72, the ΔCpconf (−Mg^2+, 30 °C) was −520 cal mol^−1 K^−1 and the ΔGb (−Mg^2+, 30 °C) was -6.3 kcal/mol. For the same compound, the ΔHb (−Mg^2+, 30 °C) was -5.4 ± 0.6 kcal/mol, the ΔSb (−Mg^2+, 30 °C) was 3 cal mol^−1 K^−1 and the ΔSconf (−Mg^2+, 30 °C) was −121 cal mol^−1 K^−1. For the same compound, the ΔSsolv (−Mg^2+, 30 °C) was 132 cal mol^−1 K^−1, the “−ΔASAconf” value (−Mg^2+, 30 °C) was 2334 Å^2 and the “-TΔSb” value (−Mg^2+, 35 °C) was 1.7 kcal/mol. The ΔGb (−Mg^2+, 35 °C) was -6.30 kcal/mol, the ΔHb (−Mg^2+, 35 °C) was -8.0 ± 0.8 kcal/mol and the ΔCpb (−Mg^2+) was −550 cal mol^−1 K^−1 and −550 ± 18 cal mol^−1 K^−1.

Reference: article PMC9405973, “Altered Conformational Landscape upon Sensing Guanine Nucleotides in a Disease Mutant of Elongation Factor-like 1 (EFL1) GTPase” (Biomolecules, 2022)
